ChEMBL document CHEMBL1201862, “PubChem BioAssay data set” (2004)
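Cells were grown in 96-well plates and exposed to each compound for 48 hours at five concentrations; endpoints were interpolated linearly between bracketing concentrations, or set to the highest concentration if not reached. GI50 = concentration required for 50% inhibition of growth.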 Calls of active or inactive are those of the source. Rule as the data show it: active = GI50 up to about 1.1 µM and inactive = higher.

Columns and labels:
Test in all cases: NCI anticancer screen, dose series, 48 h
OVCAR-8 = tested on: OVCAR-8
MDA-MB-435 = tested on: MDA-MB-435
NCI-H460 = tested on: NCI-H460
MDA-MB-231 = tested on: MDA-MB-231
CCRF-CEM = tested on: CCRF-CEM
UO-31 = tested on: UO-31
OVCAR-4 = tested on: OVCAR-4
IGROV-1 = tested on: IGROV-1
T47D = tested on: T47D
MDA-N = tested on: MDA-N
SK-OV-3 = tested on: SK-OV-3
HCC 2998 = tested on: HCC 2998
HOP-92 = tested on: HOP-92
NCI-H522 = tested on: NCI-H522
A549 = tested on: A549
HT-29 = tested on: HT-29
CAKI-1 = tested on: CAKI-1
U-251 = tested on: U-251
UACC-257 = tested on: UACC-257
SF-295 = tested on: SF-295
SK-MEL-28 = tested on: SK-MEL-28
HL-60 = tested on: HL-60
EKVX = tested on: EKVX
NCI/ADR-RES = tested on: NCI/ADR-RES
KM12 = tested on: KM12
SK-MEL-2 = tested on: SK-MEL-2
COLO 205 = tested on: COLO 205
MOLT-4 = tested on: MOLT-4
HCT-15 = tested on: HCT-15
786-0 = tested on: 786-0
RPMI-8226 = tested on: RPMI-8226
LOX IMVI = tested on: LOX IMVI
BT-549 = tested on: BT-549
SK-MEL-5 = tested on: SK-MEL-5
SR = tested on: SR
K562 = tested on: K562
M14 = tested on: M14
SF-268 = tested on: SF-268
PC-3 = tested on: PC-3
UACC-62 = tested on: UACC-62
Hs-578T = tested on: Hs-578T
ACHN = tested on: ACHN
OVCAR-5 = tested on: OVCAR-5
TK-10 = tested on: TK-10
A498 = tested on: A498
SN12C = tested on: SN12C
DU-145 = tested on: DU-145
NCI-H23 = tested on: NCI-H23
MCF7 = tested on: MCF7
HOP-62 = tested on: HOP-62
SNB-19 = tested on: SNB-19
SW-620 = tested on: SW-620
Malme-3M = tested on: Malme-3M
OVCAR-3 = tested on: OVCAR-3
RXF 393 = tested on: RXF 393
SF-539 = tested on: SF-539
SNB-75 = tested on: SNB-75
NCI-H226 = tested on: NCI-H226
HCT-116 = tested on: HCT-116

SMILES: Cc1cc(C)nc(NS(=O)(=O)c2ccc(Nc3c4ccccc4nc4c(C(=O)NNCCO)cccc34)cc2)n1
- GI50 (OVCAR-8): > 100 µM (inactive)
- GI50 (MDA-MB-435): 79.3 µM (inactive)
- GI50 (NCI-H460): 15.7 µM (inactive)
- GI50 (MDA-MB-231): > 100 µM (inactive)
- GI50 (CCRF-CEM): 21 µM (inactive)
- GI50 (UO-31): > 100 µM (inactive)
- GI50 (OVCAR-4): > 100 µM (inactive)
- GI50 (IGROV-1): > 100 µM (inactive)
- GI50 (T47D): 5.06 µM (inactive)
- GI50 (MDA-N): > 100 µM (inactive)
- GI50 (SK-OV-3): > 100 µM (inactive)
- GI50 (HCC 2998): > 100 µM (inactive)
- GI50 (HOP-92): > 100 µM (inactive)
- GI50 (NCI-H522): 39.5 µM (inactive)
- GI50 (A549): > 100 µM (inactive)
- GI50 (HT-29): > 100 µM (inactive)
- GI50 (CAKI-1): > 100 µM (inactive)
- GI50 (U-251): > 100 µM (inactive)
- GI50 (UACC-257): > 100 µM (inactive)
- GI50 (SF-295): > 100 µM (inactive)
- GI50 (SK-MEL-28): > 100 µM (inactive)
- GI50 (HL-60): 42 µM (inactive)
- GI50 (EKVX): > 100 µM (inactive)
- GI50 (NCI/ADR-RES): > 100 µM (inactive)
- GI50 (KM12): > 100 µM (inactive)
- GI50 (SK-MEL-2): 58.6 µM (inactive)
- GI50 (COLO 205): > 100 µM (inactive)
- GI50 (MOLT-4): 30.9 µM (inactive)
- GI50 (HCT-15): > 100 µM
- GI50 (786-0): > 100 µM (inactive)
- GI50 (RPMI-8226): 15.7 µM (inactive)
- GI50 (LOX IMVI): 34.6 µM (inactive)
- GI50 (BT-549): > 100 µM (inactive)
- GI50 (SK-MEL-5): > 100 µM (inactive)
- GI50 (SR): 25.4 µM (inactive)
- GI50 (K562): 31 µM (inactive)
- GI50 (M14): > 100 µM (inactive)
- GI50 (SF-268): > 100 µM (inactive)
- GI50 (PC-3): > 100 µM (inactive)
- GI50 (UACC-62): 13.7 µM (inactive)
- GI50 (Hs-578T): > 100 µM (inactive)
- GI50 (ACHN): > 100 µM (inactive)
- GI50 (OVCAR-5): > 100 µM (inactive)
- GI50 (TK-10): > 100 µM (inactive)
- GI50 (A498): > 100 µM (inactive)
- GI50 (SN12C): > 100 µM (inactive)
- GI50 (DU-145): > 100 µM (inactive)
- GI50 (NCI-H23): > 100 µM (inactive)
- GI50 (MCF7): 89.1 µM (inactive)
- GI50 (HOP-62): > 100 µM (inactive)
- GI50 (SNB-19): > 100 µM (inactive)
- GI50 (SW-620): > 100 µM (inactive)
- GI50 (Malme-3M): > 100 µM (inactive)
- GI50 (OVCAR-3): 86.9 µM (inactive)

SMILES: CCOC(=O)C(=O)/C(=C/NC(=S)c1ccncc1)C(=O)OCC
- GI50 (OVCAR-8): > 100 µM (inactive)
- GI50 (MDA-MB-435): > 100 µM (inactive)
- GI50 (NCI-H460): > 100 µM (inactive)
- GI50 (MDA-MB-231): > 100 µM (inactive)
- GI50 (CCRF-CEM): > 100 µM (inactive)
- GI50 (RXF 393): > 100 µM (inactive)
- GI50 (UO-31): 5.71 µM (inactive)
- GI50 (OVCAR-4): > 100 µM (inactive)
- GI50 (SF-539): > 100 µM (inactive)
- GI50 (IGROV-1): > 100 µM (inactive)
- GI50 (T47D): > 100 µM (inactive)
- GI50 (MDA-N): > 100 µM (inactive)
- GI50 (SK-OV-3): > 100 µM (inactive)
- GI50 (HCC 2998): > 100 µM (inactive)
- GI50 (NCI-H522): > 100 µM (inactive)
- GI50 (A549): > 100 µM (inactive)
- GI50 (HT-29): > 100 µM (inactive)
- GI50 (SNB-75): > 100 µM (inactive)
- GI50 (CAKI-1): > 100 µM (inactive)
- GI50 (U-251): > 100 µM (inactive)
- GI50 (UACC-257): > 100 µM (inactive)
- GI50 (SF-295): > 100 µM (inactive)
- GI50 (SK-MEL-28): > 100 µM (inactive)
- GI50 (HL-60): > 100 µM (inactive)
- GI50 (EKVX): > 100 µM (inactive)
- GI50 (NCI/ADR-RES): > 100 µM (inactive)
- GI50 (KM12): > 100 µM (inactive)
- GI50 (NCI-H226): > 100 µM (inactive)
- GI50 (SK-MEL-2): > 100 µM (inactive)
- GI50 (COLO 205): > 100 µM (inactive)
- GI50 (MOLT-4): > 100 µM (inactive)
- GI50 (HCT-15): > 100 µM
- GI50 (786-0): > 100 µM (inactive)
- GI50 (RPMI-8226): > 100 µM (inactive)
- GI50 (LOX IMVI): > 100 µM (inactive)
- GI50 (BT-549): > 100 µM (inactive)
- GI50 (SK-MEL-5): > 100 µM (inactive)
- GI50 (SR): > 100 µM (inactive)
- GI50 (K562): > 100 µM (inactive)
- GI50 (M14): > 100 µM (inactive)
- GI50 (SF-268): > 100 µM (inactive)
- GI50 (HCT-116): > 100 µM (inactive)
- GI50 (PC-3): > 100 µM (inactive)
- GI50 (UACC-62): > 100 µM (inactive)
- GI50 (Hs-578T): > 100 µM (inactive)
- GI50 (ACHN): > 100 µM (inactive)
- GI50 (OVCAR-5): > 100 µM (inactive)
- GI50 (A498): > 100 µM (inactive)
- GI50 (SN12C): > 100 µM (inactive)
- GI50 (DU-145): > 100 µM (inactive)
- GI50 (NCI-H23): > 100 µM (inactive)
- GI50 (MCF7): > 100 µM (inactive)
- GI50 (HOP-62): > 100 µM (inactive)
- GI50 (SNB-19): 9.68 µM (inactive)
- GI50 (SW-620): > 100 µM (inactive)
- GI50 (Malme-3M): > 100 µM (inactive)
- GI50 (OVCAR-3): 0.0724 µM (active)

SMILES: COc1ccc(OC)c(-c2nc(O)c3ccccc3n2)c1
- GI50 (OVCAR-8): > 100 µM (inactive)
- GI50 (MDA-MB-435): > 100 µM (inactive)
- GI50 (NCI-H460): > 100 µM (inactive)
- GI50 (MDA-MB-231): > 100 µM (inactive)
- GI50 (CCRF-CEM): > 100 µM (inactive)
- GI50 (RXF 393): 15 µM (inactive)
- GI50 (UO-31): > 100 µM (inactive)
- GI50 (OVCAR-4): > 100 µM (inactive)
- GI50 (SF-539): 50.7 µM (inactive)
- GI50 (IGROV-1): > 100 µM (inactive)
- GI50 (T47D): 25.6 µM (inactive)
- GI50 (MDA-N): > 100 µM (inactive)
- GI50 (SK-OV-3): > 100 µM (inactive)
- GI50 (HCC 2998): > 100 µM (inactive)
- GI50 (A549): > 100 µM (inactive)
- GI50 (HT-29): > 100 µM (inactive)
- GI50 (SNB-75): > 100 µM (inactive)
- GI50 (CAKI-1): > 100 µM (inactive)
- GI50 (U-251): > 100 µM (inactive)
- GI50 (UACC-257): > 100 µM (inactive)
- GI50 (SF-295): > 100 µM (inactive)
- GI50 (EKVX): > 100 µM (inactive)
- GI50 (NCI/ADR-RES): 98.4 µM (inactive)
- GI50 (KM12): 42.4 µM (inactive)
- GI50 (NCI-H226): > 100 µM (inactive)
- GI50 (SK-MEL-2): > 100 µM (inactive)
- GI50 (COLO 205): > 100 µM (inactive)
- GI50 (MOLT-4): 40.6 µM (inactive)
- GI50 (HCT-15): > 100 µM
- GI50 (786-0): > 100 µM (inactive)
- GI50 (RPMI-8226): 78.3 µM (inactive)
- GI50 (BT-549): > 100 µM (inactive)
- GI50 (SK-MEL-5): 74 µM (inactive)
- GI50 (SR): 67 µM (inactive)
- GI50 (K562): > 100 µM (inactive)
- GI50 (M14): > 100 µM (inactive)
- GI50 (SF-268): > 100 µM (inactive)
- GI50 (HCT-116): > 100 µM (inactive)
- GI50 (PC-3): > 100 µM (inactive)
- GI50 (UACC-62): 66.8 µM (inactive)
- GI50 (Hs-578T): > 100 µM (inactive)
- GI50 (ACHN): > 100 µM (inactive)
- GI50 (OVCAR-5): > 100 µM (inactive)
- GI50 (A498): > 100 µM (inactive)
- GI50 (SN12C): > 100 µM (inactive)
- GI50 (DU-145): > 100 µM (inactive)
- GI50 (NCI-H23): > 100 µM (inactive)
- GI50 (MCF7): > 100 µM (inactive)
- GI50 (HOP-62): > 100 µM (inactive)
- GI50 (SNB-19): > 100 µM (inactive)
- GI50 (SW-620): > 100 µM (inactive)
- GI50 (Malme-3M): > 100 µM (inactive)
- GI50 (OVCAR-3): > 100 µM (inactive)
